Type in all cases: cell-based
Test [1] concerns the target T1, W1282X-CFTR (Homo sapiens, UniProt P13569).
T1 construct: expressed in transfected cells
The test is described as follows: Short-circuit current in FRT cells expressing W1282X-CFTR. Particulars: VX-809-corrected W1282X-CFTR-expressing FRT cells; for increase in VX-770 current: forskolin and 5 μM VX-770; for EC50: in the presence of forskolin and 5 μM VX-770. As for the experimental part: Given the utility of co-potentiators as possible CF therapeutics for several minimal function CFTR mutants, a screen was done to identify novel co-potentiator scaffolds. Screening used FRT cells stably expressing W1282X-CFTR and the halide-sensitive EYFP-H148Q/I152L/F46L (YFP) that were treated for 24 hours with 3 μM VX-809 to increase CFTR1281 cell surface expression (Fig. 4A). Just prior to assay cells were treated for 10 min with test compounds at 25 μM together with 20 μM forskolin and 15 nM VX-770. CFTR channel activity was deduced from the initial rate of YFP fluorescence quenching in response to addition of iodide-substituted phosphate buffered saline. Primary screening of 120,000 drug-like synthetic small molecules identified 212 compounds giving channel activity >50% of that produced by forskolin, VX-770 and 20 μM ASP-11 (Fig. 4B). […] Each of these compounds added to VX-809-corrected FRT cells expressing W1282X-CFTR produced little current without VX-770 (Fig. 4E).
Figure 4 Novel co-potentiators identified by high-throughput screening. (A) Assay design. (B) Summary of screening workflow and results. (C) Chemical structures of novel co-potentiators identified by screening. (D) Representative short-circuit current data in FRT cells expressing W1282X-CFTR. Concentrations: 20 μM forskolin (fsk), 5 μM VX-770 (n = 3). (E) Effects of sequential addition of 20 μM forskolin followed by 20 μM of A-01, B-01, C-01 and D-01, and 5 μM of VX-770 in FRT cells expressing W1282X-CFTR. CFTRinh-172 was used at 10 μM in all experiments.
(§1) Short-circuit current was measured on cells cultured on Snapwell clear permeable supports (Corning) as described[10],[11]. Hemichambers were connected to a DVC-1000 voltage clamp (World Precision Instruments Inc., Sarasota, FL) via Ag/AgCl electrodes and 3 M KCl agar bridges for recording of the short-circuit current. For human airway epithelial cells, symmetrical HCO3^−-buffered solutions (in mM: 120 NaCl, 5 KCl, 1 MgCl2, 1 CaCl2, 5 Hepes, 25 NaHCO3, 10 glucose, pH 7.4) for basolateral and apical side were used. For FRT cells, the basolateral membrane was permeabilized with 250 μg/ml amphotericin B, and experiments were done with a chloride gradient using a HCO3^−-buffered solutions (Basolateral (mM): 120 NaCl, 5 KCl, 1 MgCl2, 1 CaCl2, 5 Hepes, 25 NaHCO3, 10 glucose, pH 7.4; apical (mM): 60 NaCl, 60 mM sodium gluconate, 5 KCl, 1 MgCl2, 1 CaCl2, 5 Hepes, 25 NaHCO3, 10 glucose, pH 7.4). All cells were equilibrated with 95% O2, 5% CO2 and maintained at 37 °C during experiments.

Test [2] deals with T1, W1282X-CFTR. The test is described as follows: Structure-activity testing of analogs in FRT cells expressing W1282X-CFTR. How it is done:
To establish structure-activity relationships, 240 commercially available piperidinepyridoindole analogs and 160 pyrazoloquinoline analogs were tested in FRT cells expressing W1282X-CFTR. In general, the methoxy substituent on the 4-position (R^3) on the pyridoindole ring increased potency (compare A01 vs A534). N-methylation on the pyridoindole ring abolished activity (compare A534 vs A600). For substituent R^1 on the piperidine ring, substituted benzyl gave greatest activity (A061 and A662). Other R^1 substituents, including sulfonamide (A145), alkyl (A764) and carbocyclic (A714), reduced activity. Changing the benzylic carbon from methylene (CH2) to ketone (C=O) abolished activity (A815, A350 and A956).
For R^3, pyridine (D003), benzyl (D035) and substituted methyl-pyrazole (D086) abolished activity. […] The D123 pyrazoloquinoline with R^3 substituted with thiophene-quinoline heterocycle gave the best potency.

For test [3], the target named is T2, Q1313X-CFTR (Homo sapiens, UniProt P13569).
T2 construct: expressed in transfected cells
T2 sequence (P13569 1-1312 limits assumed): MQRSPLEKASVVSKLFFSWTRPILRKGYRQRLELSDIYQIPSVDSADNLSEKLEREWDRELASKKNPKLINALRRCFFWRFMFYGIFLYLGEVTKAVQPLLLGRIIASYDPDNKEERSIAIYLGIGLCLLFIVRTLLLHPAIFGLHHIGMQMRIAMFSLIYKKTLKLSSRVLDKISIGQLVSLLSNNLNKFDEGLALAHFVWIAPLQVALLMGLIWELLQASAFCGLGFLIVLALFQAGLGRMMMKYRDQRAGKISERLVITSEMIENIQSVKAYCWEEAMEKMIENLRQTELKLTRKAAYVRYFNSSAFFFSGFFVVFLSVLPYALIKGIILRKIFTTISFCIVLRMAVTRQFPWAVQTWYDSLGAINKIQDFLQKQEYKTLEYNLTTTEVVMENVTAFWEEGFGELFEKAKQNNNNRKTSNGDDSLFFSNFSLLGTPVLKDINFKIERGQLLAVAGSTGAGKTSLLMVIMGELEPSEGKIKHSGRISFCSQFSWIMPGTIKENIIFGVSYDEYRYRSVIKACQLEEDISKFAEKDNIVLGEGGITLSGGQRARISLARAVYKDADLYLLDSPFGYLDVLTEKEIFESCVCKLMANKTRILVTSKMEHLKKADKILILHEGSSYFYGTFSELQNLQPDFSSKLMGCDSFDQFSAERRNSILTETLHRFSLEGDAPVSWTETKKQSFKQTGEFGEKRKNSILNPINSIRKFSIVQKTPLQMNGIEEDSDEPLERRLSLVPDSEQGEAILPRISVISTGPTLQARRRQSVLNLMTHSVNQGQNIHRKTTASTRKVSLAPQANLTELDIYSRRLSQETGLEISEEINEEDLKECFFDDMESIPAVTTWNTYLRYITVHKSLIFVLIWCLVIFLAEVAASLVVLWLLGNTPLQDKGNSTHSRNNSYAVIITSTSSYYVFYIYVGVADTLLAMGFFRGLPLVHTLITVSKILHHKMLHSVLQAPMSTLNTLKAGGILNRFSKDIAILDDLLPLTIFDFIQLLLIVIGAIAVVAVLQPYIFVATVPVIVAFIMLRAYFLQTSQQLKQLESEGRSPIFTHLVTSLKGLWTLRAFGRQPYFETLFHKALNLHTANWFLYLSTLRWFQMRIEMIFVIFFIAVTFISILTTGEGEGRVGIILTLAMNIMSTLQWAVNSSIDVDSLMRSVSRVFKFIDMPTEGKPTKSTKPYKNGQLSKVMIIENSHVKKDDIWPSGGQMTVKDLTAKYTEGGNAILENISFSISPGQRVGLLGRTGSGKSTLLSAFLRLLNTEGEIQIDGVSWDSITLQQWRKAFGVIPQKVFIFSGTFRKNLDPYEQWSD
The test is described as follows: Short-circuit current in FRT cells expressing Q1313X-CFTR. Particulars: Q1313X-CFTR FRT cells, 20 μM forskolin; for short-circuit current response when added after VX-770: 5 μM VX-770, 20 μM P2, P3, P5, ASP-11, 25 μM apigenin. As for the experimental part:
As shown in Fig. 1C and summarized in Fig. 2, ASP-11 acted in synergy with VX-770 to increase chloride current in FRT cells expressing the NBD2 mutations I1234del- and Q1313X-CFTR by ~3–9-fold compared to VX-770. I1234del- and Q1313X-CFTR-expressing cells were also treated with VX-809 for 24 hours (to consider the effect of available CFTR therapeutics) with 2–3-fold greater currents observed.
Studies on FRT cells expressing Q1313X-CFTR produced similar data (Fig. 3C).
(§2) Figures 5C,D show data in N1303K- and Q1313X-expressing FRT cells.
as §1

Test [4] concerns the target T3, N1303K-CFTR (Homo sapiens, UniProt P13569, N1303K).
T3 construct: expressed in transfected cells
The test is described as follows: Short-circuit current in FRT cells expressing N1303K-CFTR. Particulars: N1303K-CFTR FRT cells; for short-circuit current response when added after VX-770: 20 μM forskolin, 5 μM VX-770, then 20 μM compound. As for the experimental part:
Based on prior studies[10],[11],[20], we hypothesized that distinct binding sites may be required to bind a potentiator and co-potentiator to rescue channel activity of CFTR mutants. We defined the potentiator VX-770 as a Class I compound, and co-potentiator ASP-11 as a Class II compound (Fig. 3A,D). Short-circuit current measurements in N1303K-CFTR-expressing FRT cells confirmed synergy when ASP-11 was added after VX-770 (Fig. 3Bi). […] In each experiment, CFTRinh-172 confirmed that current was from CFTR.
Figure 3 Definition of Class I and II CFTR potentiators. (A) Chemical structures of Class I and II potentiators. (B) Short-circuit current in FRT cells expressing N1303K-CFTR in response to forskolin and indicated potentiators. Concentrations: 20 μM forskolin, 5 μM VX-770, 20 μM ASP-11, 20 μM GLPG1837, 20 μM P2, 20 μM P3, 20 μM P5, 20 μM W1282Xpot-C01, and 10 μM CFTRinh-172. C. Short-circuit current in FRT cells expressing Q1313X-CFTR in response to forskolin and indicated potentiators. Concentrations: as in panel B, and 25 μM apigenin. (D) Summary of relative N1303K-CFTR activation in response to combinations of Class I and Class II potentiators. Mean ± S.E.M., n = 3. TEXT PRINTED IN THE PICTURE: (D) VX-770: N1303K-CFTR: P5: 1% ±1%; N1303K-CFTR: GLPG 1837: 10% ±5%; N1303K-CFTR: ASP-11: 100% ±3%; N1303K-CFTR: apigenin: 100% ±5% | (D) P5: N1303K-CFTR: VX-770: 1% ±1%; N1303K-CFTR: GLPG 1837: 2% ±2%; N1303K-CFTR: ASP-11: 52% ±5%; N1303K-CFTR: apigenin: 56% ±5% | (D) GLPG 1837: N1303K-CFTR: VX-770: 0% ±5%; N1303K-CFTR: P5: 2% ±2%; N1303K-CFTR: ASP-11: 100% ±4%; N1303K-CFTR: apigenin: 98% ±5% | (D) ASP-11: N1303K-CFTR: VX-770: 100% ±3%; N1303K-CFTR: P5: 47% ±4%; N1303K-CFTR: GLPG 1837: 100% ±5%; N1303K-CFTR: apigenin: 7% ±3% | (D) apigenin: N1303K-CFTR: VX-770: 100% ±5%; N1303K-CFTR: P5: 50% ±5%; N1303K-CFTR: GLPG 1837: 100% ±5%; N1303K-CFTR: ASP-11: 5% ±2% DOUBTS OF THE COPYIST ABOUT THIS PICTURE: Panel D is a matrix of pairs of substances (row substance combined with column substance). The picture prints no name for the measure, only % values and a 0%–100% colour scale. / The print in panel D is small, so 3, 5, 6 and 8 are hard to tell apart in these values. / VX-770 / GLPG 1837: ±5% could be ±3% / VX-770 / ASP-11: ±3% could be ±5% / VX-770 / apigenin: ±5% could be ±3% / P5 / ASP-11: 52% ±5%, digits uncertain / P5 / apigenin: 56% could be 58%, and ±5% is uncertain / GLPG 1837 / VX-770: 0% ±5%, error digit uncertain / GLPG 1837 / apigenin: 98% could be 96%, and ±5% is uncertain / ASP-11 / VX-770: ±3% could be ±5% / ASP-11 / GLPG 1837: ±5% could be ±3% / ASP-11 / apigenin: 7% ±3%, error digit uncertain / apigenin / VX-770: ±5% could be ±3% / apigenin / P5: 50% ±5%, digits uncertain / apigenin / GLPG 1837: ±5% could be ±3% / apigenin / ASP-11: 5% ±2%, the 5 is uncertain
as §2, §1

The mark [5] stands for this setting: Table 1, 100% Vmax corresponds to 20 μM ASP-11.
The mark [6] stands for this setting: Table 1, piperidine-pyridoindole analogs.

T3 sequence (P13569 whole entry N1303K): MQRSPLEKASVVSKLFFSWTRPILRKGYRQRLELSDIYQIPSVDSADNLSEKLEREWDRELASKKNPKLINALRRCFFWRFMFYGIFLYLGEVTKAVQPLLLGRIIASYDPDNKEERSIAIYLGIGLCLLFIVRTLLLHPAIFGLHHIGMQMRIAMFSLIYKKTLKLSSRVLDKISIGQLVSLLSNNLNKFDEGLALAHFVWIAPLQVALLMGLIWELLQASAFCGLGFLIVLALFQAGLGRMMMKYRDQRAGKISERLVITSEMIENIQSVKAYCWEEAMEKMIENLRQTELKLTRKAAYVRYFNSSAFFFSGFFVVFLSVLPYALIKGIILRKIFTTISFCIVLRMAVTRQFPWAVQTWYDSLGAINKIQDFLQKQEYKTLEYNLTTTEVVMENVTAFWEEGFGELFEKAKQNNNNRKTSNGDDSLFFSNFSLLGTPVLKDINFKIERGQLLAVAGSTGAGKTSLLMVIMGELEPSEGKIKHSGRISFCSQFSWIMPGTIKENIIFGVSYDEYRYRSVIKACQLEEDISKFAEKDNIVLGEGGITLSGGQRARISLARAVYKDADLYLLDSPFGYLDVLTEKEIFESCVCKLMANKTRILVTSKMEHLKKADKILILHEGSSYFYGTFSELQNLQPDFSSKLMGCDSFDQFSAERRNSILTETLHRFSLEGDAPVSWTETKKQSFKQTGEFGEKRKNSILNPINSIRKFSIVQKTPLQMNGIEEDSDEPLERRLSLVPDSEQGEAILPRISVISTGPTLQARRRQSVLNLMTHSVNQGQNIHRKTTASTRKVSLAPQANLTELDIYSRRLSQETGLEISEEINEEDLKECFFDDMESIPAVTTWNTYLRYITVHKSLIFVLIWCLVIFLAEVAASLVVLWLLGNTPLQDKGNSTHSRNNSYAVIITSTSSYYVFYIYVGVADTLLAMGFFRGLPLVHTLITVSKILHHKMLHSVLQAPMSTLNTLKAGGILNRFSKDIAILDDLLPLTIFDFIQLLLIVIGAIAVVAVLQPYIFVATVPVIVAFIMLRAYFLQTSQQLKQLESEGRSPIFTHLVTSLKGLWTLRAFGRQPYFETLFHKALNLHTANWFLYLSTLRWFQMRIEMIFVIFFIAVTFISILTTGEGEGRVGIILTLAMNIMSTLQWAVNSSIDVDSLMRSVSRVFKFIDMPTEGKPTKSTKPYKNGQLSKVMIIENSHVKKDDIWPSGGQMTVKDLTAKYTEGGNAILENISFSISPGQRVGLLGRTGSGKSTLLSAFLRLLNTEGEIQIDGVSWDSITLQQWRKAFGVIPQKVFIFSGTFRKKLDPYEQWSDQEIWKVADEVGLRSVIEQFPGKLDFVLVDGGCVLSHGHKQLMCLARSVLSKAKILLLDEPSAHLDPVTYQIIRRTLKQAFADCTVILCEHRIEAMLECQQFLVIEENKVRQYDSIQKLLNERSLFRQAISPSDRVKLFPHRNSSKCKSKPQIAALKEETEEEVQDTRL
T1 sequence (P13569 1-1281 limits assumed): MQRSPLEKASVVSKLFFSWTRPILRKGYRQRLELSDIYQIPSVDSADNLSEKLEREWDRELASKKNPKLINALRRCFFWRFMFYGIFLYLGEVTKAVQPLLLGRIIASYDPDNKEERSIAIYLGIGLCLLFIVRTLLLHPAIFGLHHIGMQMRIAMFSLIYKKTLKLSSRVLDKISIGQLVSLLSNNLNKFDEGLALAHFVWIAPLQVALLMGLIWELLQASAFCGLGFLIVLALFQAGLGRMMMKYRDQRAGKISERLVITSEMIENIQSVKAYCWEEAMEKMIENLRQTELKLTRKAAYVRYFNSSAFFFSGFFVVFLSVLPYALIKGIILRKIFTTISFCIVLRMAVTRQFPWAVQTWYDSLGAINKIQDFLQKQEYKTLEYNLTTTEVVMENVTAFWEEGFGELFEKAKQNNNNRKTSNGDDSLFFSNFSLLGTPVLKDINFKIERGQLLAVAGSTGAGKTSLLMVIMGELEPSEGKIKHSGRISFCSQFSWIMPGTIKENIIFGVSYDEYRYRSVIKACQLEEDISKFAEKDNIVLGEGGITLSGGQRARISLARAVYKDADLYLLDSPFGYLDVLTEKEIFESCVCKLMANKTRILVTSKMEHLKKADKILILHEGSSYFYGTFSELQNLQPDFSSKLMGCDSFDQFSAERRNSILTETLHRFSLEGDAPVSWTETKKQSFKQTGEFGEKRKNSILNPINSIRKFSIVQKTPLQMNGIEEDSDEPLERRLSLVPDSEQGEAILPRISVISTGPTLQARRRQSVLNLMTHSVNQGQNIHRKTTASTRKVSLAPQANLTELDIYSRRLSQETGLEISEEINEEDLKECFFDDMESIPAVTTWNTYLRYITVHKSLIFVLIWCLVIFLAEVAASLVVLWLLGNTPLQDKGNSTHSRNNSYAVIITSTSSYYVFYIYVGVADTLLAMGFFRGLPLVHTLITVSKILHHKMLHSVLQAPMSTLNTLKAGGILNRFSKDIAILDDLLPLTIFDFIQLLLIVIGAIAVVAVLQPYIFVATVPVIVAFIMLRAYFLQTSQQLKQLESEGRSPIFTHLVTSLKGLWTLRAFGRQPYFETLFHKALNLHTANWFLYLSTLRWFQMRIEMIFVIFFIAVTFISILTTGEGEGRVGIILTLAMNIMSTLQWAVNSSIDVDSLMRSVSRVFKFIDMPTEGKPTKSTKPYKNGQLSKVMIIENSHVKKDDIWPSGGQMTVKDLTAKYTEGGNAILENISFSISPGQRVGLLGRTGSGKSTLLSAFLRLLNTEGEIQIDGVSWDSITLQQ

A word on the EC50: it is the midpoint of the concentration-response curve. On to `COc1cccc(CN2CCC3(CC2)NCCc2c3[nH]c3ccc(OC)cc23)c1` [Compound A01], for which, in test [1], the “increase in VX-770 current” value is ~ 6 fold and the EC50 was 10 µM. In addition, the “Relative Vmax (%)” value in test [2] (setting [5]) is 100%. Also, the concentration giving a half-maximal response (EC50) in test [2] (setting [6]) amounted to 10 µM.

On to `c1ccc(CN2CCC3(CC2)NCCc2c3[nH]c3ccccc23)cc1` [Compound A357], for which the “Relative Vmax (%)” value in test [2] (setting [5]) is 31%. The same compound gave an EC50 in test [2] (setting [6]) of 16 µM.

In the case of `CC(C)c1ccc(NC(=O)C(c2ccccc2)N(C)C(=O)Cc2c[nH]c3ccccc23)cc1` (stereo not drawn) [Compound P2], the “short-circuit current response when added after VX-770” value in test [3] is reported as “did not elevate current”; in test [4] it was “did not further increase current”.

With `COc1ccc2[nH]c3c(c2c1)CCNC31CCN(C)CC1` [Compound A764], the “Relative Vmax (%)” value in test [2] (setting [5]) came out at 6%. Moreover, in test [2] (setting [6]), the EC50 was above 30 µM.

As for `COc1cccc(CN2CCC3(CC2)NCCc2c3[nH]c3ccccc23)c1` [Compound A534], in test [2] (setting [5]), the “Relative Vmax (%)” value is reported as 24%. This compound also had a concentration for a half-maximal effect (EC50) in test [2] (setting [6]) of 13 µM.

On to `O=C(CN1C(=O)CC(c2cccs2)=Nc2ccccc21)NCc1ccc(Cl)cc1` [CP-B01], for which, in test [1], the “increase in VX-770 current” value is on record as ~ 6 fold and the EC50 amounted to 5 µM.

Turning to `CCCS(=O)(=O)N1CCCc2ccc(NS(=O)(=O)c3cccs3)cc21` [CP-C01], in test [1], the “increase in VX-770 current” value is ~ 6 fold and the EC50 is 8 µM.

Take `COc1cccc(CN2CCC3(CC2)c2[nH]c4ccccc4c2CCN3C)c1` [Compound A600]: the “Relative Vmax (%)” value in test [2] (setting [5]) is 4%. The compound also displayed an EC50 in test [2] (setting [6]) above 30 µM.

With `COc1ccc2[nH]c3c(c2c1)CCNC31CCN(S(C)(=O)=O)CC1` [Compound A145], in test [2] (setting [5]), the “Relative Vmax (%)” value is 7%. In addition, the EC50 in test [2] (setting [6]) is above 30 µM.

`O=c1cc(-c2ccc(O)cc2)oc2cc(O)cc(O)c12` [apigenin]: the “short-circuit current response when added after VX-770” value in test [3] is given as “showed synergy”. In addition, the “short-circuit current response when added after GLPG1837” value in test [3] (20 μM GLPG1837) is given as “showed synergy”.

With `CCN(c1ccccc1)S(=O)(=O)c1ccc2[nH]cc(C(=O)NCc3ccccc3OC)c(=O)c2c1` [Compound P3], the “short-circuit current response when added after VX-770” value in test [3] was “did not elevate current”; in test [4], “did not further increase current”.

As for `COc1ccc2cc3c(N)nn(C(=O)c4ccccc4Cl)c3nc2c1` [Compound D001], in test [1], the “increase in VX-770 current” value was ~ 6 fold and the EC50 amounted to 15 µM. For the same compound, in test [2] (Table 2, 100% Vmax corresponds to 20 μM ASP-11), the “Relative Vmax (%)” value was found to be 90%. For the same compound, in test [2] (Table 2, pyrazoloquinoline analogs), the EC50 is 15 µM.

As for `Cc1cc(C)cc(N(Cc2ccc(Cl)cc2)S(=O)(=O)c2cccn3c(C)nnc23)c1` [W1282Xpot-C01], in test [4] (20 μM W1282Xpot-C01 and 20 μM ASP-11, no Class I potentiator), the “activation by two Class II potentiators added together” value was “little activation”. For the same compound, the “short-circuit current response when added after VX-770” value in test [4] is listed as “activated N1303K-CFTR”.

As for `NC(=O)c1c(NC(=O)c2ccccc2Cl)sc2c1CCCC2` [Compound P5], the “short-circuit current response when added after VX-770” value in test [3] is “did not elevate current”; in test [4] it was “did not further increase current”.

For the compound `COc1ccc2[nH]c3c(c2c1)CCNC31CCN(C2CCCCC2)CC1` [Compound A714], the “Relative Vmax (%)” value in test [2] (setting [5]) is 18%. In test [2] (setting [6]), this compound gave an EC50 above 30 µM.

Turning to `COc1ccc2[nH]c3c(c2c1)CCNC31CCN(Cc2ccc(F)c(F)c2)CC1` [Compound A662], the “Relative Vmax (%)” value in test [2] (setting [5]) amounted to 100%. The same compound yielded an EC50 in test [2] (setting [6]) of 2.6 µM.

The values are drawn from article PMC6881293, “Nanomolar-potency ‘co-potentiator’ therapy for cystic fibrosis caused by a defined subset of minimal function CFTR mutants” (Scientific Reports, 2019).
